Measurements from ChEMBL document CHEMBL1201862, “PubChem BioAssay data set” (2004).
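Interpolation was linear, between the two tested concentrations surrounding the appropriate level; five concentrations were tested over 48 hours in 96-well plates. GI50: concentration for 50% inhibition of growth.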 Active and inactive are the calls of the source. Cut-off read from the data, not from the text of the source: active = GI50 up to about 1.1 µM and inactive = higher.

Tests used:
Experiment in all cases: inhibition of tumour cell growth, NCI panel, 48 h
[1] = system: NCI-H23
[2] = system: LOX IMVI
[3] = system: SK-MEL-5
[4] = system: NCI/ADR-RES
[5] = system: M14
[6] = system: CCRF-CEM
[7] = system: HL-60
[8] = system: RPMI-8226
[9] = system: SNB-75
[10] = system: OVCAR-8
[11] = system: COLO 205
[12] = system: SF-295
[13] = system: Hs-578T
[14] = system: A549
[15] = system: ACHN
[16] = system: UACC-257
[17] = system: TK-10
[18] = system: EKVX
[19] = system: SF-268
[20] = system: RXF 393
[21] = system: K562
[22] = system: PC-3
[23] = system: SK-MEL-2
[24] = system: MOLT-4
[25] = system: OVCAR-4
[26] = system: Malme-3M
[27] = system: DU-145
[28] = system: 786-0
[29] = system: MDA-N
[30] = system: SN12C
[31] = system: CAKI-1
[32] = system: NCI-H226
[33] = system: IGROV-1
[34] = system: OVCAR-5
[35] = system: HCT-116
[36] = system: KM12
[37] = system: HCC 2998
[38] = system: UACC-62
[39] = system: A498
[40] = system: SNB-19
[41] = system: SF-539
[42] = system: MDA-MB-231
[43] = system: T47D
[44] = system: NCI-H460
[45] = system: SR
[46] = system: OVCAR-3
[47] = system: U-251
[48] = system: BT-549
[49] = system: SK-OV-3
[50] = system: SK-MEL-28
[51] = system: HCT-15
[52] = system: MDA-MB-435
[53] = system: HT-29
[54] = system: HOP-62
[55] = system: SW-620
[56] = system: UO-31
[57] = system: NCI-H522
[58] = system: MCF7

## Cc1cc(C)nc(NC(=S)Nc2cccc(Cl)c2)c1
[1]
  GI50: > 100 µM (inactive)
[2]
  GI50: > 100 µM (inactive)
[3]
  GI50: > 10 µM (inactive)
[4]
  GI50: > 100 µM (inactive)
[5]
  GI50: > 100 µM (inactive)
[6]
  GI50: > 20 µM (inactive)
[7]
  GI50: > 100 µM (inactive)
[8]
  GI50: > 100 µM (inactive)
[9]
  GI50: > 100 µM (inactive)
[10]
  GI50: > 100 µM (inactive)
[11]
  GI50: > 80.9 µM (inactive)
[12]
  GI50: > 100 µM (inactive)
[13]
  GI50: > 100 µM (inactive)
[14]
  GI50: 20.8 µM (inactive)
[15]
  GI50: 28.1 µM (inactive)
[16]
  GI50: > 100 µM (inactive)
[17]
  GI50: > 35.9 µM (inactive)
[18]
  GI50: > 100 µM (inactive)
[19]
  GI50: > 100 µM (inactive)
[20]
  GI50: > 100 µM (inactive)
[21]
  GI50: > 100 µM (inactive)
[22]
  GI50: > 100 µM (inactive)
[23]
  GI50: > 100 µM (inactive)
[24]
  GI50: > 100 µM (inactive)
[25]
  GI50: > 36.6 µM (inactive)
[26]
  GI50: > 100 µM (inactive)
[27]
  GI50: > 100 µM (inactive)
[28]
  GI50: > 48.5 µM (inactive)
[29]
  GI50: > 100 µM (inactive)
[30]
  GI50: > 100 µM (inactive)
[31]
  GI50: 20.3 µM (inactive)
[32]
  GI50: > 100 µM (inactive)
[33]
  GI50: 16.1 µM (inactive)
[34]
  GI50: > 100 µM (inactive)
[35]
  GI50: > 100 µM (inactive)
[36]
  GI50: > 100 µM (inactive)
[37]
  GI50: 65.5 µM (inactive)
[38]
  GI50: > 100 µM (inactive)
[39]
  GI50: > 47.3 µM (inactive)
[40]
  GI50: > 100 µM (inactive)
[41]
  GI50: > 100 µM (inactive)
[42]
  GI50: > 100 µM (inactive)
[43]
  GI50: > 88.3 µM (inactive)
[44]
  GI50: > 45.8 µM (inactive)
[45]
  GI50: 16.6 µM (inactive)
[46]
  GI50: > 100 µM (inactive)
[47]
  GI50: > 100 µM (inactive)
[48]
  GI50: > 100 µM (inactive)
[49]
  GI50: > 100 µM (inactive)
[50]
  GI50: > 100 µM (inactive)
[51]
  GI50: > 100 µM
[52]
  GI50: > 100 µM (inactive)
[53]
  GI50: > 83.4 µM (inactive)
[54]
  GI50: > 75.7 µM (inactive)
[55]
  GI50: > 100 µM (inactive)
[56]
  GI50: > 100 µM (inactive)

## CC(=O)OC[C@@H](OC(C)=O)[C@H](OC(C)=O)[C@@H]1OC(C)(C)O[C@@H]1C1SCCCS1
[57]
  GI50: > 100 µM (inactive)
[1]
  GI50: > 100 µM (inactive)
[2]
  GI50: > 100 µM (inactive)
[3]
  GI50: > 100 µM (inactive)
[5]
  GI50: > 100 µM (inactive)
[6]
  GI50: > 100 µM (inactive)
[8]
  GI50: > 100 µM (inactive)
[9]
  GI50: > 100 µM (inactive)
[10]
  GI50: > 100 µM (inactive)
[11]
  GI50: > 100 µM (inactive)
[12]
  GI50: > 100 µM (inactive)
[13]
  GI50: > 100 µM (inactive)
[14]
  GI50: > 100 µM (inactive)
[15]
  GI50: > 100 µM (inactive)
[16]
  GI50: > 100 µM (inactive)
[17]
  GI50: > 100 µM (inactive)
[18]
  GI50: > 100 µM (inactive)
[19]
  GI50: > 100 µM (inactive)
[58]
  GI50: > 100 µM (inactive)
[20]
  GI50: > 100 µM (inactive)
[21]
  GI50: > 100 µM (inactive)
[22]
  GI50: > 100 µM (inactive)
[23]
  GI50: > 100 µM (inactive)
[24]
  GI50: > 100 µM (inactive)
[25]
  GI50: > 100 µM (inactive)
[26]
  GI50: > 100 µM (inactive)
[27]
  GI50: > 100 µM (inactive)
[28]
  GI50: > 100 µM (inactive)
[29]
  GI50: > 100 µM (inactive)
[31]
  GI50: > 100 µM (inactive)
[34]
  GI50: > 100 µM (inactive)
[35]
  GI50: > 100 µM (inactive)
[36]
  GI50: > 100 µM (inactive)
[37]
  GI50: > 100 µM (inactive)
[38]
  GI50: > 100 µM (inactive)
[39]
  GI50: > 100 µM (inactive)
[40]
  GI50: > 100 µM (inactive)
[41]
  GI50: > 100 µM (inactive)
[42]
  GI50: > 100 µM (inactive)
[43]
  GI50: > 100 µM (inactive)
[44]
  GI50: > 100 µM (inactive)
[45]
  GI50: > 100 µM (inactive)
[46]
  GI50: > 100 µM (inactive)
[47]
  GI50: > 100 µM (inactive)
[48]
  GI50: > 100 µM (inactive)
[49]
  GI50: > 100 µM (inactive)
[50]
  GI50: > 100 µM (inactive)
[52]
  GI50: > 100 µM (inactive)
[54]
  GI50: > 100 µM (inactive)
[55]
  GI50: > 100 µM (inactive)
[56]
  GI50: > 100 µM (inactive)
